Measured values published in ChEMBL document CHEMBL3045822, “Growth retarding activity of lichen substances against the polyphagous herbivorous insect Spodoptera littoralis” (1994).
Active and inactive are the calls of the source. No cut-off for these calls is given here.

Columns and labels:
Spodoptera littoralis [1] = assay: Toxicity against neonate larval stage of Spodoptera littoralis fed with diet containing compound assessed as reduction in larval survival measured per gm dry weight after 6 days by chronic feeding assay; type: functional; details: 144 h, read-out: ED50
Spodoptera littoralis [2] = assay: Growth retarding activity against neonate larval stage of Spodoptera littoralis fed with diet containing compound measured per gm of dry weight after 6 days by chronic feeding bioassay; type: functional; details: 144 h, read-out: ED50
Spodoptera littoralis [3] = assay: Growth retarding activity against neonate larval stage of Spodoptera littoralis fed with diet containing compound assessed as larval weight after 6 days by chronic feeding bioassay (reference value: 100%); type: functional
Spodoptera littoralis [4] = assay: Toxicity against neonate larval stage of Spodoptera littoralis fed with diet containing compound assessed as reduction in larval survival at 15 to 110 umol/gm dry weight after 6 days by chronic feeding assay; type: functional, organism-based
Spodoptera littoralis [5] = assay: Growth retarding activity against neonate larval stage of Spodoptera littoralis fed with diet containing compound assessed as larval weight at 70 umol/gm dry weight after 6 days by chronic feeding bioassay (reference value: 100%); type: functional
Spodoptera littoralis [6] = assay: Prolongation of duration of larval period in Spodoptera littoralis fed with diet containing compound at 110 umol/gm dry weight treated for 6 days measured after transferring onto control diet by chronic feeding bioassay (reference value: 17 to 20 days); type: functional
Spodoptera littoralis [7] = assay: Change in pupal weight of Spodoptera littoralis fed with diet containing compound at 110 umol/gm dry weight treated for 6 days measured after transferring onto control diet by chronic feeding bioassay (reference value: 0.40 +/-0.05 gms); type: functional
Spodoptera littoralis [8] = assay: Induction of imago developmental aberrations with imperfect wings in Spodoptera littoralis fed with diet containing compound at 110 umol/gm dry weight treated for 6 days measured after transferring onto control diet by chronic feeding bioassay; type: functional
Spodoptera littoralis [9] = assay: Growth retarding activity against neonate larval stage of Spodoptera littoralis fed with diet containing compound assessed as larval weight at 94 umol/gm dry weight after 6 days by chronic feeding bioassay (reference value: 100%); type: functional
Spodoptera littoralis [10] = assay: Growth retarding activity against neonate larval stage of Spodoptera littoralis fed with diet containing compound assessed as larval weight at 41 umol/gm dry weight after 6 days by chronic feeding bioassay (reference value: 100%); type: functional
Spodoptera littoralis [11] = assay: Reduction in number of imagoes emerging from pupae in Spodoptera littoralis fed with diet containing compound at 110 umol/gm dry weight after 6 days by chronic feeding bioassay (reference value: 90%); type: functional; design: scale not given: the % may be the effect or the level left
Spodoptera littoralis [12] = assay: Growth retarding activity against neonate larval stage of Spodoptera littoralis fed with diet containing compound assessed as larval weight at 104 umol/gm dry weight after 6 days by chronic feeding bioassay (reference value: 100%); type: functional

| Compound | EC50 (Spodoptera littoralis [2]) [µmol/g] | Activity (Spodoptera littoralis [4]) | Time (Spodoptera littoralis [6]) [days] | Activity (Spodoptera littoralis [7]) [g] | other results |
| --- | --- | --- | --- | --- | --- |
| CC(=O)C1=C(O)C=C2Oc3c(C(C)=O)c(O)c(C)c(O)c3[C@@]2(C)C1=O [(+)-USNIC ACID] | 4.5 | – | – | – | EC50 (Spodoptera littoralis [1]): 90.8 µmol/g |
| CC(=O)C1=C(O)C=C2Oc3c(C(C)=O)c(O)c(C)c(O)c3[C@]2(C)C1=O [(-)-USNIC ACID] | 1.2 | – | – | – | EC50 (Spodoptera littoralis [1]): 8.6 µmol/g |
| COC(=O)c1c(C)cc(OC(=O)c2c(C)cc(O)c(C=O)c2O)c(C)c1O [ATRANORIN] | > 110 | inactive | – | – | Activity (Spodoptera littoralis [3]): 51%; Activity (Spodoptera littoralis [5]): 52% |
| O=C1O/C(=C2/C(=O)Oc3ccccc32)C(O)=C1c1ccccc1 [CALYCIN] | 37.6 | inactive | 21 | 0.33 | Activity (Spodoptera littoralis [8]): 44% |
| COc1cc(C)c(C(=O)Oc2cc(C)c(C(=O)O)c(O)c2)c(O)c1 [EVERNIC ACID] | > 110 | inactive | – | – | – |
| Cc1cc(O)c(C=O)c2c1C(=O)Oc1c(COC(=O)/C=C/C(=O)O)c(O)c(C(=O)O)c(C)c1O2 [FUMARPROTOCETRARIC ACID] | 30.5 | inactive | 24 | 0.45 | – |
| Cc1cc(O)c(C=O)c2c1C(=O)Oc1c(C)c(O)c3c(c1O2)C(O)OC3=O (stereo not drawn) [NORSTICTIC ACID] | 32 | inactive | 17 | 0.33 | Activity (Spodoptera littoralis [3]): 18%; Activity (Spodoptera littoralis [9]): 18% |
| CCCCCC(=O)Cc1cc(O)c(O)c2c1C(=O)Oc1cc(O)c(C(=O)O)c(CCCCC)c1O2 [OXYPHYSODIC ACID] | 11.2 | inactive | 19 | 0.33 | Activity (Spodoptera littoralis [10]): 15%; Activity (Spodoptera littoralis [8]): 50% |
| CCCCCC(=O)Cc1cc(O)cc2c1C(=O)Oc1cc(O)c(C(=O)O)c(CCCCC)c1O2 [PHYSODIC ACID] | > 110 | inactive | – | – | – |
| COc1cc(C(=O)O)c2c(c1C)OC(=O)c1c(C)cc(O)c(C=O)c1O2 [PSOROMIC ACID] | 46.2 | inactive | 20 | 0.41 | – |
| O=C1OC2=C(c3ccccc3)C(=O)OC2=C1c1ccccc1 [PULVINIC DILACTONE] | > 110 | inactive | – | – | – |
| COC(=O)C(Cc1ccccc1)NC(=O)/C(=C1/OC(=O)C(c2ccccc2)=C1O)c1ccccc1 (stereo not drawn) [RHIZOCARPIC ACID] | 70.8 | inactive | 19 | 0.28 | Activity (Spodoptera littoralis [11]): 25% |
| Cc1cc(O)c(C=O)c2c1C(=O)Oc1c(CO)c(O)c3c(c1O2)C(O)OC3=O (stereo not drawn) [SLAZINIC ACID] | 29.2 | inactive | 24 | 0.4 | – |
| COc1cc(C)c2c(c1C=O)Oc1c(c(C)c(O)c3c1C(O)OC3=O)OC2=O (stereo not drawn) [STICTIC ACID] | 57.5 | inactive | 20 | 0.41 | Activity (Spodoptera littoralis [12]): 27% |
| COC(=O)/C(=C1/OC(=O)C(c2ccccc2)=C1O)c1ccccc1 [VULPINIC ACID] | 17.2 | inactive | 23 | 0.32 | Activity (Spodoptera littoralis [8]): 14% |
